# Measured values taken from publication PMC10939466, “A transferrin receptor targeting dual-modal MR/NIR fluorescent imaging probe for glioblastoma diagnosis” (Regenerative Biomaterials, 2024).
# Square brackets hold non-standard residues; d marks the D form. Peptide text beside a SMILES is read from it.
# What was measured:
# [1] = system: BBB model in vitro (bEnd.3 cells co-cultured with U87-MG cells); experiment: Sodium fluorescein permeability of the in vitro BBB model; type: in vitro ADME; conditions: transwell 3 µm pore, 0.33 cm^2, bEnd.3 upper / U87-MG lower chamber; NaFl 10 µg/mL; 30, 60, 90 min; 37°C; fluorescence 485/535 nm
# Protocol: A primary BBB model using bEnd.3 cells in vitro was established to evaluate the penetration ability of ^DTHR-Cy7-PEG-DSPE-SPIONs. The inner side of a polycarbonate transwell (Millipore, USA) with a mean pore size of 3 µm and a surface area of 0.33 cm^2 was coated with collagen. After coating, the transwell was left to air dry for 30 min. Then, bEnd.3 cells (5 × 10^4 cells per well) were seeded into the upper chamber of a 24-well transwell plate. After 48 h, 1 × 10^5 U87-MG cells were seeded in the lower chamber of each well. Both cells were co-cultured for 1 week.
# The endothelial permeability coefficient of sodium fluorescein (NaFl) was used to evaluate the function of BBB model in vitro, as previously described. In brief, 200 µL NaFl solution (10 µg/mL) and 900 µL PBS were added to the upper and lower chambers of the BBB models, respectively. And then cultured in a 5% CO2 atmosphere at 37°C. Following incubation periods of 30, 60 and 90 min, 100 µL samples from the lower chambers were transferred to a new 96-well plate. […] Finally, the relative fluorescence intensity of the samples was measured using a multi-detector monochromator microplate reader (485/535 nm), with NaFl concentration deduced from a standard curve. The apparent permeability coefficient (Papp) was calculated using the formula: Papp=dQ/dt×1/(A×C0). […]
# [2] = Cellular uptake of the peptides; type: cell-based
Compound,"Papp of NaFl, BBB model [1]",cellular uptake compared to THR [2]
"O=C([O-])c1ccccc1-c1c2ccc(=O)cc-2oc2cc([O-])ccc12.[Na+].[Na+] [NaFl, sodium fluorescein]",11.24 ± 0.73 ×10^−6 cm/s,–
"CSCC[C@@H](NC(=O)[C@@H](Cc1c[nH]c2ccccc12)NC(=O)[C@@H](CO)NC(=O)[C@H]1CCCN1C(=O)[C@H](NC(=O)[C@@H](Cc1c[nH]c2ccccc12)NC(=O)[C@H]1CCCN1C(C)=O)C(C)C)C(=O)N1CCC[C@@H]1C(=O)N1CCC[C@@H]1C(=O)N[C@H](CCCNC(=N)N)C(=O)N[C@H](Cc1c[nH]cn1)C(=O)N[C@@H](C(=O)O)[C@H](C)O [^DTHR, Ac-pwvpswmpprht-COOH] (Ac-[dP][dW][dV][dP][dS][dW][dM][dP][dP][dR][dH][dT]-OH)",–,lower cellular uptake
